Measurements reported in ChEMBL document CHEMBL1141998, “Synthesis and evaluation of pyrazolidine derivatives as dipeptidyl peptidase IV (DP-IV) inhibitors” (Bioorg Med Chem Lett, 2005).

target: Dipeptidyl peptidase 4 (Rattus norvegicus, UniProt P14740); experiment: Inhibitory activity against dipeptidyl peptidase IV (DP-IV)
Sequence (P14740 whole entry): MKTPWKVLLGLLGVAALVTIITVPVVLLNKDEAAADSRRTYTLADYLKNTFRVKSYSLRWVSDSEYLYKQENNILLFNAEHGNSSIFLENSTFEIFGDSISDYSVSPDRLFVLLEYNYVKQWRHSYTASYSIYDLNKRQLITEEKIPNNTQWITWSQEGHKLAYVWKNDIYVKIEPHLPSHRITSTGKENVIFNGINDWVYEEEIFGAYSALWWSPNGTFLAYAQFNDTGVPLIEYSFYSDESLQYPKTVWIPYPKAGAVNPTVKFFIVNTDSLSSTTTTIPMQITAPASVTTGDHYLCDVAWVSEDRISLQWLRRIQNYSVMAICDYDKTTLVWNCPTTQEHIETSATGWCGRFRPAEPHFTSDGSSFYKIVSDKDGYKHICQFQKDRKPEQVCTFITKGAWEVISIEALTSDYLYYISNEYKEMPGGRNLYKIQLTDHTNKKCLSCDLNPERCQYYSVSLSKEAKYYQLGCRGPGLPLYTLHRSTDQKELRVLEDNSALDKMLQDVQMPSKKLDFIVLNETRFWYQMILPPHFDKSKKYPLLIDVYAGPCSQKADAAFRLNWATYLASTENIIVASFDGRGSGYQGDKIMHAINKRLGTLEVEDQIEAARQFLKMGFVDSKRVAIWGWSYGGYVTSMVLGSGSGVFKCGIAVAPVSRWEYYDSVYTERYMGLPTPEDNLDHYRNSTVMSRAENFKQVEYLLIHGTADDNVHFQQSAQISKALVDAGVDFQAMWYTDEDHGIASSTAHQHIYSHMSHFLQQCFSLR

SMILES	IC50 [µM]
CCOC(=O)c1ccc(NC(=O)N2CCCN2C(=O)[C@@H](N)C(C)CC)cc1 (stereo not given in full)	3.9
CC(C)C[C@H](N)C(=O)N1CCCN1C(=O)Nc1cccc([N+](=O)[O-])c1	20.7
CCC(C)[C@H](N)C(=O)N1CCCN1C(=O)Nc1cccc(C#N)c1 (stereo not given in full)	4.04
CCC(C)[C@H](N)C(=O)N1CCCN1C(=O)Nc1cccc([N+](=O)[O-])c1 (stereo not given in full)	1.56
CC(C)[C@H](N)C(=O)N1CCCN1C(=O)Nc1cccc([N+](=O)[O-])c1	2.1
CCC(C)[C@H](N)C(=O)N1CCCN1C(=O)Nc1ccc([N+](=O)[O-])c(Cl)c1 (stereo not given in full)	4.71
CCC(C)[C@H](N)C(=O)N1CCCN1C(=O)Nc1ccccc1 (stereo not given in full)	15
O=C(CNC1CCCCC1)N1CCCN1C(=O)Nc1cccc([N+](=O)[O-])c1	4.6
CCC(C)[C@H](N)C(=O)N1CCCN1C(=O)OCc1ccccc1 (stereo not given in full)	23.3
CCC(C)[C@H](N)C(=O)N1CCCN1C(=O)Nc1ccc(C#N)cc1 (stereo not given in full)	9.2
CCOC(=O)c1cccc(NC(=O)N2CCCN2C(=O)[C@@H](N)C(C)CC)c1 (stereo not given in full)	8.8
CCC(C)[C@H](N)C(=O)N1CCCN1C(=O)Nc1ccc(Cl)c(Cl)c1 (stereo not given in full)	5.6
CCC(C)[C@H](N)C(=O)N1CCCN1C(=O)Nc1ccc([N+](=O)[O-])c(F)c1 (stereo not given in full)	2.27
CCC(C)[C@H](N)C(=O)N1CCCN1C(=O)Nc1ccc([N+](=O)[O-])cc1 (stereo not given in full)	7.06
CCC(C)[C@H](N)C(=O)N1CCCN1C(=O)Nc1ccc(C(F)(F)F)cc1 (stereo not given in full)	25
